One may read the bioavailability as the share of a dose that reaches the circulation, judged against a reference dose that is usually intravenous. A higher bioavailability goes with much systemic uptake.

Data set [1] is described as follows: Oral bioavailability in CD-1 mice. Particulars: male, CD-1, mouse, blood, 50 mg/kg.
Description: (§3) CD-1 mice were randomly assigned to δgroups with 3 male mice in each compound group. […] Compounds were orally administered (PO) in a single dose to each mouse in its group. Blood samples were taken within 72 hours. Bioavailability (F%) was determined and by liquid chromatography-mass spectrometry (LC-MS/MS).
Another data set concerns A427 cells. Put plainly: CellTiter-Glo cell cytotoxicity, A427. The format is cell-based. The conditions noted are these: A-427, 72 h, A427 human lung carcinoma, 1 copy of KRAS(G12D), read-out: A427 72H CTG. As for the experimental part: (§1) The following cancer cell lines were employed: A427 human lung carcinoma [1 copy of KRAS(G12D)] (ATCC, #HTB-53); AGS human gastric adenocarcinoma [1 copy of KRAS(G12D)] (ATCC, #CRL-1739); and AsPC-1 human adenocarcinoma [2 copies of KRAS(G12D)] (ATCC, CRL-1682). Cell lines were cultured essentially according to American Type Culture Collection (ATCC) recommendations.
A427 and AGS cells were plated in 96-well tissue culture plates at 4,000 cells/well and incubated at 37° C/5% CO2 for 72 hr in 100 μl of media. 3-fold serial dilutions of each test compound were prepared ranging from 20 μM to 1.02 nM. Each cell line was then treated with test compounds at various concentrations with a final concentration of 0.5%
(§2) […] 100 Ill of CellTiter-Glo® Reagent (Promega Corporation, Madison, WI) was added to each well and processed according manufacturer's protocol. Results were analyzed and IC50 values were calculated in GraphPad 7 software.

The subject of the next data set is AGS cells. Briefly: CellTiter-Glo cell cytotoxicity, AGS. The class given is cell-based. Particulars: AGS human gastric adenocarcinoma, 1 copy of KRAS(G12D), read-out: AGS 72H CTG. As for the experimental part:
as §1
A427 and AGS cells were plated in 96-well tissue culture plates at 4,000 cells/well and incubated at 37° C/5% CO2 for 72 hr in 100 μl of media. 3-fold serial dilutions of each test compound were prepared ranging from 20 μM to 1.02 nM. […]
as §2
(In general: In ATP-based viability assays light output follows the ATP content of the culture.)

Another data set deals with T1, KRAS(G12D)-SOS1 (Homo sapiens, UniProt P01116, G12D).
T1 construct: purchased Cisbio 63ADK000CB16PEG
Put plainly: KRAS(G12D)/SOS1 HTRF binding assay. The conditions noted are these: absence of GTP; 4° C. for 3 hr. How it is done:
Binding of test compounds to KRAS(G12D) target protein, which in turn blocks KRAS(G12D) interaction with the SOS1 protein, was measured in the absences of GTP by homogeneous time-resolved fluorescence using the KRAS-G12D/SOS1 Binding Assay Kit (Cisbio, #63ADK000CB16PEG), following the manufacturer's instructions, except as noted. 3-fold serial dilutions of each test compound were prepared ranging from 20 μM to 1.02 nM. The test compound was mixed and incubated with reaction components, incubated in a sealed plate at 4° C. for 3 hr and fluorescence was measured using a PerkinElmer Envision plate reader. The KRAS(G12D)-SOS1 IC50 values (the concentration of 50% of the maximal inhibition) were calculated using GraphPad Prism 7 software.
Background: In TR-FRET formats the signal depends on donor and acceptor labels being close together.

The nature of the next data set: in vivo. The conditions noted are these: male, CD-1, mouse, po, 50 mg/kg.

T1 sequence (P01116 1-188 isoform P01116-2 G12D): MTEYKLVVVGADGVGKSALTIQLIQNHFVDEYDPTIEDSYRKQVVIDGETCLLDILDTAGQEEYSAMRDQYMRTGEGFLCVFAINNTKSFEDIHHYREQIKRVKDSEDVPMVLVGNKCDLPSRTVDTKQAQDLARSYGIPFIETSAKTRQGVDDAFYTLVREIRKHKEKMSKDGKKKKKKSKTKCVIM
Description for in vivo: as §3

In data set [1], `C#Cc1c(F)ccc2cc(O)cc(-c3ncc4c(N5CC6CCC(C5)N6)nc(OC[C@]56CCCN5C[C@@H](F)C6)nc4c3F)c12` showed a bioavailability of 0.45%. For `C#Cc1c(F)ccc2cc(O)cc(-c3ncc4c(N5CC6CCC(C5)N6C(=O)C(F)(F)F)nc(OCC5(CN6CCC(F)CC6)CC5)nc4c3F)c12` [drawing 110], the IC50 with A427 cells, in the data set with AGS cells and on KRAS(G12D)-SOS1 was 1 to 100 nM in each case. Regarding `C#Cc1c(F)ccc2cc(O)cc(-c3ncc4c(N5CC6CCC(C5)N6)nc(OCC5(CN6CCC(F)CC6)CC5)nc4c3F)c12` [drawing 111], the IC50 in the data set with A427 cells and with AGS cells was 1 to 100 nM each time.

As to `C#Cc1c(F)ccc2cc(O)cc(-c3ncc4c(N5CC6CCC(C5)N6C(=O)C(F)(F)F)nc(OC[C@]56CCCN5C[C@@H](F)C6)nc4c3F)c12` [drawing 112], the IC50 in the data set with A427 cells is 1000 to 10000 nM; in the data set with AGS cells, 1 to 100 nM. In the same order, the values of `C#Cc1c(F)ccc2cc(O)cc(-c3ncc4c(N5CC6CCC(C5)N6C(=O)C(F)(F)F)nc(OCC5(CN6CC7CC7C6)CC5)nc4c3F)c12` (stereo not drawn) [drawing 114] are 1000 to 10000 nM and 1 to 100 nM. For `C#Cc1c(F)ccc2cc(O)cc(-c3ncc4c(N5CC6CCC(C5)N6)nc(OCC5(CN6CC7CC7C6)CC5)nc4c3F)c12` (stereo not drawn) [drawing 115], the IC50 with A427 cells, in the data set on AGS cells and on KRAS(G12D)-SOS1 was 1 to 100 nM in each case. `C#Cc1c(F)ccc2cc(O)cc(-c3ncc4c(N5CC6CCC(C5)N6C(=O)C(F)(F)F)nc(OCC5(CN6CCC(F)CC6)CC5)nc4c3F)c12` [drawing 116]: the bioavailability in data set [1] was 12.4%. Still for that read-out and setting: in the case of `C#Cc1c(F)ccc2cc(O)cc(-c3ncc4c(N5CC6CCC(C5)N6)nc(OCC5(CN6CCC(F)CC6)CC5)nc4c3F)c12` [drawing 117] it was 0.82%; in that of `C#Cc1c(F)ccc2cc(O)cc(-c3ncc4c(N5CC6CCC(C5)N6C(=O)C(F)(F)F)nc(OC[C@]56CCCN5C[C@@H](F)C6)nc4c3F)c12` [drawing 118], 15.8%.

`C#Cc1c(F)ccc2cc(O)cc(-c3ncc4c(N5CC6CCC(C5)N6C(=O)C(F)(F)F)nc(OCC5(CN6CC7CC7C6)CC5)nc4c3F)c12` (stereo not drawn) [drawing 120]: the bioavailability in “in vivo” is 17.4%. `C#Cc1c(F)ccc2cc(O)cc(-c3ncc4c(N5CC6CCC(C5)N6)nc(OCC5(CN6CC7CC7C6)CC5)nc4c3F)c12` (stereo not drawn) [drawing 121] registered a bioavailability in data set [1] of 0.47%.
